Source: ChEMBL document CHEMBL4308841, “Synthesis, in vitro antiproliferative activity, and kinase inhibitory effects of pyrazole-containing diarylureas and diarylamides” (Eur J Med Chem, 2018)

Key:
PC-3 = experiment: Growth inhibition of human PC3 cells assessed as cell growth at 1 uM incubated for 48 hrs by sulforhodamine B assay relative to control; type: functional; settings: PC-3, 48 h, read-out: Activity
MOLT-4 [1] = experiment: Growth inhibition of human MOLT4 cells assessed as cell growth at 100 uM incubated for 48 hrs by sulforhodamine B assay relative to control; type: functional; settings: MOLT-4, 48 h, read-out: Activity
SK-MEL-28 = experiment: Growth inhibition of human SK-MEL-28 cells incubated for 48 hrs by sulforhodamine B assay; type: functional, cell-based; settings: SK-MEL-28, 48 h
MOLT-4 [2] = experiment: Growth inhibition of human MOLT4 cells assessed as cell growth at 0.1 uM incubated for 48 hrs by sulforhodamine B assay relative to control; type: functional; settings: MOLT-4, 48 h, read-out: Activity
HT-29 [3] = experiment: Growth inhibition of human HT-29 cells assessed as cell growth at 0.01 uM incubated for 48 hrs by sulforhodamine B assay relative to control; type: functional; settings: HT-29, 48 h, read-out: Activity
SR = experiment: Growth inhibition of human SR cells assessed as cell growth at 100 uM incubated for 48 hrs by sulforhodamine B assay relative to control; type: functional; settings: read-out: Activity
HL-60(TB) [4] = experiment: Growth inhibition of human HL-60(TB) cells assessed as cell growth at 1 uM incubated for 48 hrs by sulforhodamine B assay relative to control; type: functional; settings: HL-60, 48 h, read-out: Activity
MDA-MB-231 = experiment: Growth inhibition of human MDA-MB-231 cells incubated for 48 hrs by sulforhodamine B assay; type: functional, cell-based; settings: MDA-MB-231, 48 h
HT-29 [5] = experiment: Growth inhibition of human HT-29 cells assessed as cell growth at 1 uM incubated for 48 hrs by sulforhodamine B assay relative to control; type: functional; settings: HT-29, 48 h, read-out: Activity
Malme-3M = experiment: Growth inhibition of human MALME-3M cells assessed as cell growth at 0.01 uM incubated for 48 hrs by sulforhodamine B assay relative to control; type: functional; settings: read-out: Activity
KM12 = experiment: Growth inhibition of human KM12 cells incubated for 48 hrs by sulforhodamine B assay; type: functional, cell-based; settings: KM12, 48 h
HL-60(TB) [6] = experiment: Growth inhibition of human HL-60(TB) cells assessed as cell growth at 100 uM incubated for 48 hrs by sulforhodamine B assay relative to control; type: functional; settings: HL-60, 48 h, read-out: Activity
CAKI-1 = experiment: Growth inhibition of human Caki1 cells assessed as cell growth at 0.01 uM incubated for 48 hrs by sulforhodamine B assay relative to control; type: functional; settings: CAKI-1, 48 h, read-out: Activity
U-251 = experiment: Growth inhibition of human U251 cells assessed as cell growth at 0.1 uM incubated for 48 hrs by sulforhodamine B assay relative to control; type: functional; settings: U-251, 48 h, read-out: Activity
NCI/ADR-RES = experiment: Growth inhibition of human NCI/ADR-RES cells assessed as cell growth at 100 uM incubated for 48 hrs by sulforhodamine B assay relative to control; type: functional; settings: read-out: Activity
UO-31 = experiment: Growth inhibition of human UO31 cells incubated for 48 hrs by sulforhodamine B assay; type: functional, cell-based; settings: UO-31, 48 h
MDA-MB-468 = experiment: Growth inhibition of human MDA-MB-468 cells assessed as cell growth at 1 uM incubated for 48 hrs by sulforhodamine B assay relative to control; type: functional; settings: MDA-MB-468, 48 h, read-out: Activity
IGROV-1 = experiment: Growth inhibition of human IGROV1 cells assessed as cell growth at 0.1 uM incubated for 48 hrs by sulforhodamine B assay relative to control; type: functional; settings: IGROV-1, 48 h, read-out: Activity
MCF7 = experiment: Growth inhibition of human MCF7 cells assessed as cell growth at 1 uM incubated for 48 hrs by sulforhodamine B assay relative to control; type: functional; settings: MCF7, 48 h, read-out: Activity
T47D = experiment: Growth inhibition of human T47D cells incubated for 48 hrs by sulforhodamine B assay; type: functional, cell-based
UACC-257 = experiment: Growth inhibition of human UACC257 cells incubated for 48 hrs by sulforhodamine B assay; type: functional, cell-based; settings: UACC-257, 48 h
A549 = experiment: Growth inhibition of human A549/ATCC cells incubated for 48 hrs by sulforhodamine B assay; type: functional, cell-based; settings: A549, 48 h
K562 = experiment: Growth inhibition of human K562 cells assessed as cell growth at 0.01 uM incubated for 48 hrs by sulforhodamine B assay relative to control; type: functional; settings: K562, 48 h, read-out: Activity
CCRF-CEM = experiment: Growth inhibition of human CCRF-CEM cells assessed as cell growth at 100 uM incubated for 48 hrs by sulforhodamine B assay relative to control; type: functional; settings: read-out: Activity
HL-60(TB) [7] = experiment: Growth inhibition of human HL-60(TB) cells assessed as cell growth at 0.01 uM incubated for 48 hrs by sulforhodamine B assay relative to control; type: functional; settings: HL-60, 48 h, read-out: Activity
SNB-75 = experiment: Growth inhibition of human SNB75 cells incubated for 48 hrs by sulforhodamine B assay; type: functional, cell-based; settings: SNB-75, 48 h
RXF 393 = experiment: Growth inhibition of human RXF393 cells assessed as cell growth at 0.01 uM incubated for 48 hrs by sulforhodamine B assay relative to control; type: functional; settings: RXF 393, 48 h, read-out: Activity
M14 = experiment: Growth inhibition of human M14 cells assessed as cell growth at 1 uM incubated for 48 hrs by sulforhodamine B assay relative to control; type: functional; settings: M14, 48 h, read-out: Activity
[8] = read-out: LC50 (the source's name)
[9] = read-out: pLC50 (the source's name) (converted)

## COc1cc(Cl)cc(-c2nn(-c3cccc(NC(=O)Nc4ccc(Cl)c(Cl)c4)c3)cc2-c2ccncc2)c1
PC-3
  growth at 1 µM: 54%
MOLT-4 [1]
  growth at 100 µM: -7%
SK-MEL-28; read-out: GI50
  GI50: 2.96 µM
SK-MEL-28; [8]
  CC50: > 100 µM
SK-MEL-28; read-out: TGI
  TGI: 35.6 µM
SK-MEL-28; read-out: pGI50 (converted)
  GI50: 2.95 µM
SK-MEL-28; [9]
  CC50: > 100 µM
SK-MEL-28; read-out: pTGI (converted)
  TGI: 37.2 µM
MOLT-4 [2]
  growth at 0.1 µM: 88%
HT-29 [3]
  growth at 0.01 µM: 103%
SR
  growth at 100 µM: -26%
HL-60(TB) [4]
  growth at 1 µM: 91%
MDA-MB-231; read-out: GI50
  GI50: 1.87 µM
MDA-MB-231; [8]
  CC50: 1.5 µM
MDA-MB-231; read-out: TGI
  TGI: 45.2 µM
MDA-MB-231; read-out: pGI50 (converted)
  GI50: 1.86 µM
MDA-MB-231; [9]
  CC50: 15.8 µM
MDA-MB-231; read-out: pTGI (converted)
  TGI: 4.47 µM
HT-29 [5]
  growth at 1 µM: 62%
Malme-3M
  growth at 0.01 µM: 92%
KM12; read-out: GI50
  GI50: 2.02 µM
KM12; [8]
  CC50: > 100 µM
KM12; read-out: TGI
  TGI: 10.8 µM
KM12; read-out: pGI50 (converted)
  GI50: 2.04 µM
KM12; [9]
  CC50: > 100 µM
KM12; read-out: pTGI (converted)
  TGI: 10.7 µM
HL-60(TB) [6]
  growth at 100 µM: -30%
CAKI-1
  growth at 0.01 µM: 96%
U-251
  growth at 0.1 µM: 92%
NCI/ADR-RES
  growth at 100 µM: -3%
UO-31
  IC50: 1.89 µM
UO-31; read-out: GI50
  GI50: 1.59 µM
UO-31; [8]
  CC50: > 100 µM
UO-31; read-out: TGI
  TGI: 15.2 µM
UO-31; read-out: pGI50 (converted)
  GI50: 1.91 µM
UO-31; [9]
  CC50: > 100 µM
UO-31; read-out: pTGI (converted)
  TGI: 18.2 µM
MDA-MB-468
  growth at 1 µM: 69%
IGROV-1
  growth at 0.1 µM: 101%
MCF7
  growth at 1 µM: 83%
T47D; read-out: GI50
  GI50: 2.78 µM
T47D; [8]
  CC50: > 100 µM
T47D; read-out: TGI
  TGI: 15.9 µM
T47D; read-out: pGI50 (converted)
  GI50: 2.75 µM
T47D; [9]
  CC50: > 100 µM
T47D; read-out: pTGI (converted)
  TGI: 19.1 µM
UACC-257; read-out: GI50
  GI50: 1.54 µM
UACC-257; [8]
  CC50: > 100 µM
UACC-257; read-out: TGI
  TGI: 61.9 µM
UACC-257; read-out: pGI50 (converted)
  GI50: 1.86 µM
UACC-257; [9]
  CC50: > 100 µM
UACC-257; read-out: pTGI (converted)
  TGI: 5.25 µM
A549
  IC50: 1.48 µM
A549; read-out: GI50
  GI50: 1.48 µM
A549; [8]
  CC50: > 100 µM
A549; read-out: TGI
  TGI: 15.3 µM
A549; read-out: pGI50 (converted)
  GI50: 1.48 µM
A549; [9]
  CC50: > 100 µM
A549; read-out: pTGI (converted)
  TGI: 15.5 µM
K562
  growth at 0.01 µM: 101%
CCRF-CEM
  growth at 100 µM: -27%
HL-60(TB) [7]
  growth at 0.01 µM: 99%
SNB-75; read-out: GI50
  GI50: 2.11 µM
SNB-75; [8]
  CC50: > 100 µM
SNB-75; read-out: TGI
  TGI: 45.6 µM
SNB-75; read-out: pGI50 (converted)
  GI50: 2.14 µM
SNB-75; [9]
  CC50: > 100 µM
SNB-75; read-out: pTGI (converted)
  TGI: 49 µM
RXF 393
  growth at 0.01 µM: 100%
M14
  growth at 1 µM: 82%
